# ChEMBL document CHEMBL1201862, “PubChem BioAssay data set” (2004)
#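 Interpolation was linear, between the two tested concentrations surrounding the appropriate level; five concentrations were tested over 48 hours in 96-well plates. GI50 marks 50% less growth.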 The source made the active and inactive calls. No stated cut-off is given here; in the data, active = GI50 up to about 1.1 µM and inactive = higher.
# Legend:
# Test in all cases: NCI-60 cell line screen, 48 h
# DLD-1 = tested on: DLD-1
# DMS-273 = tested on: DMS-273
# KM-20L2 = tested on: KM-20L2
# LXFL 529 = tested on: LXFL 529
# M19-MEL = tested on: M19-MEL
# HOP-18 = tested on: HOP-18
# RXF 631 = tested on: RXF 631
# SNB-78 = tested on: SNB-78
# XF498 = tested on: XF498
SMILES,GI50 (DLD-1),GI50 (DMS-273),GI50 (KM-20L2),GI50 (LXFL 529),GI50 (M19-MEL),GI50 (HOP-18),GI50 (RXF 631),GI50 (SNB-78),GI50 (XF498)
N=C(N)NCCCC(NCc1c2ccccc2nc2ccccc12)C(=O)O (stereo not drawn),17.3 µM (inactive),31.3 µM (inactive),29.4 µM (inactive),38.5 µM (inactive),58.7 µM (inactive),–,–,–,–
CC(C)CCCCCCCCCCCCC(=O)NCC(=O)NC1C(C)OC(Nc2[nH]cnc3ncnc2-3)C(O)C1O (stereo not drawn),0.01 µM (active),< 0.01 µM (active),< 0.01 µM (active),0.000588 µM (active),< 0.01 µM (active),< 0.01 µM (active),3.54e-05 µM (active),0.000646 µM (active),< 0.01 µM (active)
Cc1cc2c(c(C(=O)O)c1C)-c1cccc(F)c1C2=O,> 100 µM (inactive),> 100 µM (inactive),> 100 µM (inactive),> 100 µM (inactive),> 100 µM (inactive),–,> 100 µM (inactive),> 100 µM (inactive),> 100 µM (inactive)
Cc1ccccc1-n1c(=O)sc2c(=O)n(-c3ccccc3)c(=S)[nH]c21,> 100 µM (inactive),> 100 µM (inactive),> 100 µM (inactive),> 100 µM (inactive),> 100 µM (inactive),> 100 µM (inactive),–,> 100 µM (inactive),–
c1ccc(NCn2cnc3ccccc32)cc1,29.2 µM (inactive),> 100 µM (inactive),6.04 µM (inactive),> 100 µM (inactive),> 100 µM (inactive),> 100 µM (inactive),> 100 µM (inactive),> 100 µM (inactive),> 100 µM (inactive)
CC(=O)NS(=O)(=O)c1ccc(NC(=O)COC(=O)c2cccc3c(=O)c4ccccc4[nH]c23)cc1,–,> 100 µM (inactive),–,–,> 100 µM (inactive),> 100 µM (inactive),–,–,> 100 µM (inactive)
O=C(CSSCC(=O)OCCS(=O)(=O)Nc1ccc(Br)cc1)OCCS(=O)(=O)Nc1ccc(Br)cc1,15.7 µM (inactive),9.51 µM (inactive),22.9 µM (inactive),7.1 µM (inactive),15.1 µM (inactive),> 100 µM (inactive),–,17.1 µM (inactive),–
CN(C)CC[N+]1=Nc2cccc3cccc(c23)N1,> 44.4 µM (inactive),17.7 µM (inactive),40.7 µM (inactive),58.1 µM (inactive),47.1 µM (inactive),–,44.5 µM (inactive),> 100 µM (inactive),> 86.3 µM (inactive)
COc1cc(/C=C2\[C@H]3c4c(c(OC)c(C)c(OC)c4OC)C[C@@H](C(=O)N2Cc2ccccc2)N3C(=O)OC(C)C)c(OC)c(C)c1OC,> 100 µM (inactive),25.9 µM (inactive),> 100 µM (inactive),52.1 µM (inactive),–,> 100 µM (inactive),> 100 µM (inactive),–,–
Nc1ccc(C(=O)NN2C(=O)C(Cl)C2c2cccc(O)c2)cc1 (stereo not drawn),14.4 µM (inactive),11 µM (inactive),17.1 µM (inactive),11.7 µM (inactive),21.5 µM (inactive),–,–,17.5 µM (inactive),–
CCOC(=O)C(=Cc1cc(OC)ccc1OC)C(=O)OCC,8.41 µM (inactive),3.75 µM (inactive),2.21 µM (inactive),3.26 µM (inactive),4.07 µM (inactive),11.4 µM (inactive),5.81 µM (inactive),–,11.2 µM (inactive)
COC(=O)C1=C(C(=O)OC)C23C=CC=CC24C(C(=O)OC)=C(C(=O)OC)C4C1C3 (stereo not drawn),> 100 µM (inactive),72.9 µM (inactive),> 100 µM (inactive),74.1 µM (inactive),> 100 µM (inactive),–,–,67.1 µM (inactive),> 100 µM (inactive)
CCOC(=O)/C(C#N)=C\Sc1ccccc1,18.1 µM (inactive),16.3 µM (inactive),22.8 µM (inactive),15 µM (inactive),22 µM (inactive),> 100 µM (inactive),15.7 µM (inactive),28.1 µM (inactive),28.1 µM (inactive)
COc1cc(/C=N/N=C(\N)NO)cc(Cl)c1O,71.1 µM (inactive),–,–,44 µM (inactive),27.8 µM (inactive),19.2 µM (inactive),–,47.4 µM (inactive),–
C=C1CC(CC)(CCN2C(=O)c3ccccc3C2=O)OC1=O (stereo not drawn),17.9 µM (inactive),11.4 µM (inactive),15.8 µM (inactive),13.6 µM (inactive),–,–,–,–,13.4 µM (inactive)
CN(CCO)c1nc2c(c(=O)[nH]1)CNCC2,> 100 µM (inactive),> 100 µM (inactive),> 100 µM (inactive),> 100 µM (inactive),80.2 µM (inactive),> 100 µM (inactive),–,> 100 µM (inactive),> 100 µM (inactive)
O=C(CC1(O)C(=O)Nc2ccc([N+](=O)[O-])cc21)c1ccncc1 (stereo not drawn),37.4 µM (inactive),–,76.4 µM (inactive),–,20.4 µM (inactive),27.8 µM (inactive),20.7 µM (inactive),47.2 µM (inactive),15.3 µM (inactive)
Cc1nc2ccccc2c(=O)n1/N=C(\N=N\c1ccc(Cl)cc1)c1cccc(-c2ccco2)c1,27.9 µM (inactive),27.9 µM (inactive),27.3 µM (inactive),25.3 µM (inactive),34.1 µM (inactive),21.1 µM (inactive),–,–,–
CCCCNc1nc(C#N)c(N)s1,> 100 µM (inactive),> 100 µM (inactive),> 100 µM (inactive),> 100 µM (inactive),–,–,> 100 µM (inactive),> 100 µM (inactive),> 100 µM (inactive)
Cc1cc([N+](=O)[O-])ccc1NC(=O)C(=O)C(C(=O)c1ccccc1-c1ccccc1)C1OC(=O)c2ccccc21 (stereo not drawn),–,4.99 µM (inactive),3.48 µM (inactive),15.6 µM (inactive),12.9 µM (inactive),14.2 µM (inactive),4.75 µM (inactive),17.9 µM (inactive),5.93 µM (inactive)
COC(=O)CCC(NC(=S)N/N=C(\C)c1ccco1)C(=O)OC (stereo not drawn),> 100 µM (inactive),> 100 µM (inactive),> 100 µM (inactive),> 100 µM (inactive),> 100 µM (inactive),> 100 µM (inactive),> 100 µM (inactive),> 100 µM (inactive),> 100 µM (inactive)
CC(c1ccccc1)C(O)S(=O)(=O)O (stereo not drawn),–,> 100 µM (inactive),> 100 µM (inactive),> 100 µM (inactive),> 100 µM (inactive),> 100 µM (inactive),> 100 µM (inactive),> 100 µM (inactive),> 100 µM (inactive)
NC1C[C@H](n2cc(/C=C/Br)c(=O)[nH]c2=O)C[C@@H]1CO (stereo partly drawn),> 100 µM (inactive),> 100 µM (inactive),> 100 µM (inactive),50.4 µM (inactive),> 100 µM (inactive),> 100 µM (inactive),–,–,–
CN(C)C(=O)Oc1c(Br)cc(Br)cc1C(=O)OCc1ccccc1,25.4 µM (inactive),17.3 µM (inactive),22.8 µM (inactive),–,20 µM (inactive),33.2 µM (inactive),–,33.1 µM (inactive),19.3 µM (inactive)
O=C1c2ccc(O)c(O)c2C(=O)c2c(O)ccc(O)c21 [QUINALIZARIN],32.5 µM (inactive),25.2 µM (inactive),25.4 µM (inactive),27.5 µM (inactive),33.9 µM (inactive),–,–,41.3 µM (inactive),–
O[C@H]1[C@H]2[C@H](O)CCCN2C[C@H]1O [TRIDOLGOSIR],> 100 µM (inactive),> 100 µM (inactive),> 100 µM (inactive),> 100 µM (inactive),> 100 µM (inactive),> 100 µM (inactive),–,> 100 µM (inactive),> 100 µM (inactive)
